Consider 4 compounds from patent publication US20260215420A1 (Solasta Bio Limited, priority 2022, published 2026).

Data set [1] concerns Myzus persicae. Nature of the data set: Leaf dip assay for aphids. The class given is in vivo. The following applies: unformulated peptide, compared to vehicle and Spirotetramat, up to 120 hours. The protocol:
Leaf Dip Assay—Aphids or Plutella xylostella Based on IRAC susceptibility test method 019 (https://irac-online.org/methods/aphids-adultnymphs/). Fill a small 4 cm wide 3 cm high dish with a 1% agar solution (ensuring 1 cm gap between the agar and the lid) and leave to set. Dip a 2.5 cm leaf disc into 3 ml of treatment solution allowing the treatment to coat the leaf. Leave the disc to dry for 1 hour and place onto the set agar. Place insects (aphids or Plutella xylostella) onto each of the leaf discs. Each unit is sealed with a close-fitting, ventilated lid. Place the agar dishes in a small plastic tray lined with moist tissue paper and ensure the water trays in the bottom of the incubator are filled with clean water and place within the incubator. An assessment of mortality is made at 72, 96 and 120 hours. Leaf dip assays for aphids were performed with SB-P-65, and compared to a negative control vehicle and a current commercial insecticide Spirotetramat. The activity of SB-P-65 is shown in FIGS. 20 and 21; SB-P-65 has good activity whilst being eco-friendly and targeted to specific pests unlike broad spectrum chemical insecticides such as Spirotetramat. Leaf dip assays for aphids were performed with SB-P-66, and compared to a negative control vehicle and a current commercial insecticide Spirotetramat. […]

A short description of data set [2]: gut and MT tissue and contents of final-stage P. xylostella larvae in Schneider's medium. The following applies: Plutella xylostella, 25° C., up to 24 h.
The format of data set [3] is in vitro ADME, Plutella xylostella. The protocol: Plutella xylostella Tissue Biostability Study of SB-P-70 and SB-P-103
SB-P-70 and SB-P-103 were incubated with the gut and MT tissue and contents of final-stage P. xylostella larvae in Schneider's medium at 25° C. Control samples were prepared with peptides in Schneider's medium with no tissue and tissue in Schneider's medium with no peptides. The condition of the peptides after incubation with the tissue was assessed by LC-MS at: 4 h; 8 h; 16 h; and 24 h time points (FIGS. 13 and 14).
In contrast, SB-P-103 remained 44% intact after 24 h tissue incubation.

In data set [4] the test system is Plutella xylostella. The data set can be described thus: Leaf dip assay for Plutella xylostella. The class given is in vivo. The following applies: unformulated peptide, compared to vehicle and Chlorantraniliprole. The protocol: Leaf Dip Assay—Aphids or Plutella xylostella Based on IRAC susceptibility test method 019 (https://irac-online.org/methods/aphids-adultnymphs/). Fill a small 4 cm wide 3 cm high dish with a 1% agar solution (ensuring 1 cm gap between the agar and the lid) and leave to set. Dip a 2.5 cm leaf disc into 3 ml of treatment solution allowing the treatment to coat the leaf. Leave the disc to dry for 1 hour and place onto the set agar. Place insects (aphids or Plutella xylostella) onto each of the leaf discs. Each unit is sealed with a close-fitting, ventilated lid. Place the agar dishes in a small plastic tray lined with moist tissue paper and ensure the water trays in the bottom of the incubator are filled with clean water and place within the incubator. An assessment of mortality is made at 72, 96 and 120 hours. Leaf dip assays for Plutella xylostella were performed with SB-P-70, and compared to a negative control vehicle and a current commercial insecticide Chlorantraniliprole. The activity of SB-P-70 is shown in FIG. 6; SB-P-70 has good activity whilst being eco-friendly and targeted to specific pests unlike broad spectrum chemical insecticides such as Chlorantraniliprole

Data set [5] deals with Spodoptera frugiperda. The data set can be described thus: Lepidoptera mortality assay (artificial diet). Type of data set: in vivo. The following applies: 1×10^−4 M in artificial diet, L1 larvae, 168 hrs, compared to vehicle and DDT. The text has this: Lepidoptera Mortality Assay Against Spodoptera frugiperda Frontier Lepidoptera Artificial diet was made up by preparing agar at 1% and then mixing it with artificial diet powder. Peptide solution was aliquoted in 10 cells and diet poured straight onto it. The final concentration of the peptide was 1×10^−4 M, and each peptide was aliquoted in 10 cells. Once the diet solidified and cooled down, one L1 larvae was infested in each cell. The trays were sealed with heat and let larva were allowed to develop for 168 hrs. Finally, pupation and mortality were scored for. Lepidoptera mortality assays were performed with SB-P-70, and compared to a negative control vehicle and the insecticide dichlorodiphenyltrichloroethane (DDT). The activity of SB-P-70 is shown in FIG. 32; SB-P-70 has good activity whilst being eco-friendly and targeted to specific pests unlike broad spectrum chemical insecticides such as DDT.

For the compound `CC(C)[C@H](NC(=O)C(NC(=O)[C@H](CCCCN)NC(=O)[C@H](CCC(N)=O)NC(=O)[C@@H](N)CCCNC(=N)N)[C@@H](C)O)C(=O)N[C@@H](Cc1ccccc1)C(=O)N[C@@H](CO)C(=O)N[C@@H](CO)C(=O)N[C@@H](Cc1c[nH]c2ccccc12)C(=O)NCC(N)=O` (stereo partly shown) [SB-P-65, Hy-RQKTVFSSWG-[NH2]], the “activity against Myzus persicae (mortality)” value in data set [1] is listed as “good activity”. On to H-KVKFSAWG-NH2, for which the cleaved bond result in data set [2] is “Ser5-Ala6, major”. Consider “H-KVKFSAWG-NH2 [SB-P-70, Hy-KVKFSAWG-[NH2]]”, for which, in data set [3], the “condition of the peptide after incubation with the tissue” value is given as “completely degraded”; the “site of proteolytic cleavage” value was “between Ser5 and Ala6”. For the same compound, in data set [4], the “activity against Plutella xylostella (mortality)” value is “good activity”. Besides, in data set [5], the “activity against Spodoptera frugiperda (pupation and mortality)” value was “good activity”. Regarding “H-PAFSSWG-NH2 [SB-P-66, Hy-PAFSSWG-[NH2]]”, the “activity against Myzus persicae (mortality)” value in data set [1] is reported as “good activity”.
